# Columns and labels:
# human M5 mAChR = target: T1, human M5 mAChR (Homo sapiens, UniProt P08912); assay: Whole-cell functional agonist activity, FLIPR Ca2+ release, CHOK1-based human M5 mAChR stable cell line; conditions: for Emax: top of curve, % activity vs MAX control ligand, FLIPR Ca2+
# T1 construct: expressed in transfected cells
# T1 sequence (P08912 1-532): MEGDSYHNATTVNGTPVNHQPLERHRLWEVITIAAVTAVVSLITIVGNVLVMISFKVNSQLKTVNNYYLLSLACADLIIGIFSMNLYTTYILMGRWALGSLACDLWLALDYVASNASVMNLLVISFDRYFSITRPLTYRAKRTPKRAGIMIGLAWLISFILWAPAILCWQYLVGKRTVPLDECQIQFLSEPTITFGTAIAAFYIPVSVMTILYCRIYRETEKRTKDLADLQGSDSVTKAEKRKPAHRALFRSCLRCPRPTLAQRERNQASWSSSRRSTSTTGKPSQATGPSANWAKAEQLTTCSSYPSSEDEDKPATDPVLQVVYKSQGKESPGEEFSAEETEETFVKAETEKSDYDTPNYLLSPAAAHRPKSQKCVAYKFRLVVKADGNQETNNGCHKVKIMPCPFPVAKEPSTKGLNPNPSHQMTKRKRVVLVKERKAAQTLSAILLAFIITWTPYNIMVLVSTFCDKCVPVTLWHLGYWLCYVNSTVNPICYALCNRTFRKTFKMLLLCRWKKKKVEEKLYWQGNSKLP
# Source text: (§1) Whole-cell functional agonist activity in cells expressing recombinant human muscarinic receptor subtypes.
# (§2) ThermoFisher's FLIPR™ (Fluorescence Imaging Plate Reader) was used to quantify Ca^2+ release, a functional effect associated with Gaq-coupled M1 and M5 mAChRs. CisBio's phospho-ERK (pERK) Thr202/Tyr204 was used to evaluate Gai/o-coupled M2 and M4 mAChRs responses.
# (§3) One day before the assay, M1, M3, and M5 cells were thawed out and plated at 10,000 cells/well into black-walled, clear-bottom, Poly-D-lysine coated 384-well microplates and incubated at 37° C. and 5% CO2 in MEME+10% FBS+1× penicillin/streptomycin/glutamine, for the M1 and M3 cell lines and F-12+10% FBS+1× penicillin/streptomycin/glutamine for the M5 cell line. […] The M1 and M5 responses were analyzed using the CBIS data analysis suite (ChemInnovation, CA).
# (§4) Percentage activity was calculated using the following formula: % Activity=100%×(mean RFU of test sample mean RFU of vehicle control)/(mean MAX RFU control ligand mean RFU of vehicle control) where RFU is relative fluorescence unit. The M2 and the M4 cells were thawed out one day before the assay and plated at 2,000 and 1,000 cells per well, respectively, in […] of DMEM/F12+10% FBS in ProxiPlate 384-well white-walled, white-bottom tissue culture-treated plates and incubated at 37° C. and 5% CO2 overnight. Before the assay, cells were serum-starved at 37° C. in 5% CO2 for 4 hours by replacing culture media with […] of F12 media with 8 mM HEPES. The pERK assay was run according to assay kit instructions with minor volume modifications outlined below.
# [1] = Human liver microsome stability; format: in vitro ADME; conditions: human liver microsomes
# Description: Human Liver Microsome Stability
# Test compounds were dissolved in DMSO to prepare 10 mM stock solutions, diluted to a final test concentration of 100 nM, and incubated at 37° C. with human liver microsomes. Metabolic stability, expressed as a percent of the parent compound remaining, was assessed at 0, 15, 30, 45, and 60 minutes and calculated by comparing the compound's peak area at the time point relative to that at time-0. The half-life (T1/2) was estimated from the slope of the initial linear range of the logarithmic curve of compound remaining (%) vs. time, assuming first-order kinetics. The apparent intrinsic clearance (CLint, in μL/min/pmol, μL/min/mg or μL/min/Mcell) was calculated according to the following formula: CLint=0.693 T1/2*(mg protein/μL or million cells/μL or pmol CYP isoyme/μL).
# human M1 mAChR = target: T2, human M1 mAChR (Homo sapiens, UniProt P11229); assay: Whole-cell functional agonist activity, FLIPR Ca2+ release, U2OS-based human M1 mAChR stable cell line
# T2 construct: expressed in transfected cells
# T2 sequence (P11229 1-460): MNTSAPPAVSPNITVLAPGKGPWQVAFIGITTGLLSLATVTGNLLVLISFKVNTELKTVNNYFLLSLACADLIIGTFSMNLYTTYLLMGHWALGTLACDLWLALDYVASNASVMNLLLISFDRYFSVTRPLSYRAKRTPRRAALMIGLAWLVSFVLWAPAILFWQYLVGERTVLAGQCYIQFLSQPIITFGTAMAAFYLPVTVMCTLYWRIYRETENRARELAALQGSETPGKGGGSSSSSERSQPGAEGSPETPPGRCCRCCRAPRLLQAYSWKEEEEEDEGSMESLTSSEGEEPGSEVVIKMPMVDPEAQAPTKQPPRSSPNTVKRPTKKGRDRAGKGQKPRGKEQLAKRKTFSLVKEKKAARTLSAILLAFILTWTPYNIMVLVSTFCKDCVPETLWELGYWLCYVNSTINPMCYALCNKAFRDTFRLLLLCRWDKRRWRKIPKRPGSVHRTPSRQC
# Source text: as §1, §2, §3, §4
# human M3 mAChR = target: T3, human M3 mAChR (Homo sapiens, UniProt P20309); assay: Whole-cell functional agonist activity, FLIPR Ca2+ release, U2OS-based human M3 mAChR stable cell line; conditions: for EC50: agonist, FLIPR Ca2+ release, U2OS human M3 cells; for Emax: top of curve, % activity vs MAX control ligand, FLIPR Ca2+
# T3 construct: expressed in transfected cells
# Source text: as §1, §2
# One day before the assay, M1, M3, and M5 cells were thawed out and plated at 10,000 cells/well into black-walled, clear-bottom, Poly-D-lysine coated 384-well microplates and incubated at 37° C. and 5% CO2 in MEME+10% FBS+1× penicillin/streptomycin/glutamine, for the M1 and M3 cell lines and F-12+10% FBS+1× penicillin/streptomycin/glutamine for the M5 cell line. On the day of the test, the media was aspirated and replaced with […] fluo-4 dye loading buffer (1× dye, 1× additive A and 2.5 mM fresh probenecid in HBSS and 20 mM HEPES) and incubated at 37° C. and 5% CO2 for 45 minutes. After the incubation, cells were removed from the incubator, […] of HBSS and 20 mM HEPES was added for a total volume of […], and the cells were allowed to equilibrate at room temperature for 15 minutes in the dark before compounds were applied, by adding 4× compound solution in […] of HBSS, 0.4% DMSO and 20 mM HEPES buffer (made from a 10 mM compound stock solution in 100% DMSO), and responses were recorded for 2 minutes in FLIPR Tetra after compound administration. The M1 and M5 responses were analyzed using the CBIS data analysis suite (ChemInnovation, CA).
# as §4
# [2] = Storage stability of the tartrate salt (reanalysis by LC-MS, 1H NMR, 19F NMR); format: physicochemical
# Description: The tartrate salt of the title compound was unstable at test storage conditions. Although the initial NMR spectra were clean, the LCMS purity was about 75%. After storage at 0° C. for six months, the sample was reanalyzed by ^1H-NMR, ^19F-NMR, and LC-MS.
# [3] = tested on: muscarinic acetylcholine receptor (mAChRs) human M1-M5 (hM1-hM5); conditions: pERK, CHO cells
# Source text: In-Vitro Radioligand Binding Assays
# The Flp-In™ cell lines are designed to generate stable cell lines that express a protein of interest from an Flp-In™ expression vector.
# An extracellular signal-related kinase (ERK1/2 or p42/44) is a kinase in the mitogen-activated protein kinase (MAPK) family. Phosphorylation of ERK (pERK) can be used as a common endpoint measurement for the activation of many classes of G protein-coupled receptors (GPCR) and beta-arrestin linked signaling.
# For the pERK assay, cells were serum-starved for 5 to 6 hours. Curves were normalized to the maximum response from the fetal bovine serum (FBS) medium corresponding to a 5-minute stimulation. A 5-minute incubation with the agonists was selected for the dose-response pERK assays (n=2).
# Nonlinear regression curves were calculated per the three parameters method with no constraints.
# human M2 mAChR = target: T4, human M2 mAChR (Homo sapiens, UniProt P08172); assay: Whole-cell functional agonist activity, phospho-ERK (pERK), CHOK1-based human M2 mAChR stable cell line; conditions: top of curve, % of min (DMSO) and max (10 mM Acetylcholine) responses
# T4 construct: expressed in transfected cells
# T4 sequence (P08172 1-466): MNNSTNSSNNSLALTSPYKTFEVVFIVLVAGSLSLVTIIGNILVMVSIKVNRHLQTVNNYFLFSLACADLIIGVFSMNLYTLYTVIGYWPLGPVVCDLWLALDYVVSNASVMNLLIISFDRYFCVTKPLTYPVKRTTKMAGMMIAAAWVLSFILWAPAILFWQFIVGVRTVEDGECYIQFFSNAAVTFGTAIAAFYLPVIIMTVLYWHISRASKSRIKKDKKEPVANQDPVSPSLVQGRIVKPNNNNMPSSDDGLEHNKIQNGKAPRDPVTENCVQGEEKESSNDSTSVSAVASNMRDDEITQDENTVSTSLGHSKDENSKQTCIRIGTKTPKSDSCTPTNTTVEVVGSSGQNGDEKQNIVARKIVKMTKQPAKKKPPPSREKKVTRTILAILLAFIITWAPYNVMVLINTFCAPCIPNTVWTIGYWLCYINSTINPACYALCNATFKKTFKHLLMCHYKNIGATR
# Description: as §1, §2, §4
# (§5) Compound addition was carried out by adding 3× compound solution in […] of media with 0.3% DMSO (made from a 10 mM compound stock solution in 100% DMSO) for 5 minutes before the reaction was terminated by adding […] lysis and blocking solution. Cells were left in the lysis solution for 30 minutes before […] of antibody (Eu and d2) solution was added for an additional 2-hour incubation while protected from light. The plates were then read on laser Pherastar using the TR-FRET protocol.
# [4] = Pharmacokinetics following single oral dose administration in male Sprague-Dawley rats; format: in vivo; conditions: rat, oral administration of tartrate salts 25 mg/kg
# Description: In-Vivo Assessment of Pharmacokinetics Following Oral Dose Administration in Male Sprague-Dawley Rats
# Blood samples were collected from all animals in Groups 1-3 at 0.25, 0.5, 1, 2, 4, 6, 8, 12, and 24 hours post-dose, with each animal, bled at all time points. […] The slopes of the elimination phase of the concentrations vs. time curve used to calculate the T1/2 were determined by log-linear regression.
# PK analyses were performed and validated using Phoenix® WinNonlin® version 8.0.
# human M4 mAChR = target: T5, human M4 mAChR (Homo sapiens, UniProt P08173); assay: Whole-cell functional agonist activity, phospho-ERK (pERK), CHOK1-based human M4 mAChR stable cell line; conditions: top of curve, % of min (DMSO) and max (10 mM Acetylcholine) responses
# T5 construct: expressed in transfected cells
# T5 sequence (P08173 1-479): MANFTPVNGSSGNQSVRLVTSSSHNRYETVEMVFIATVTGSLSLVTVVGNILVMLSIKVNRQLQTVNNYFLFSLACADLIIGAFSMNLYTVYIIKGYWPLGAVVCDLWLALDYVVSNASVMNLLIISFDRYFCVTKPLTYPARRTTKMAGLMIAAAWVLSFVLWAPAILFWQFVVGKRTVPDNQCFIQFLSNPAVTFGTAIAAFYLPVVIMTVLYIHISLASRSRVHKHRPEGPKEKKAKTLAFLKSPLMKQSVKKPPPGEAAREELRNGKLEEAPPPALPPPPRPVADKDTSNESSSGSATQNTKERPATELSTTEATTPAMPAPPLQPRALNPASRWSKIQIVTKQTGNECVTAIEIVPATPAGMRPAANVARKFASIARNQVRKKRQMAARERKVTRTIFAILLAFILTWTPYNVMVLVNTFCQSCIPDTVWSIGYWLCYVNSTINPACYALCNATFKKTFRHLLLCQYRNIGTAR
# Description: as §1, §2, §4, §5
# T3 sequence (P20309 whole entry): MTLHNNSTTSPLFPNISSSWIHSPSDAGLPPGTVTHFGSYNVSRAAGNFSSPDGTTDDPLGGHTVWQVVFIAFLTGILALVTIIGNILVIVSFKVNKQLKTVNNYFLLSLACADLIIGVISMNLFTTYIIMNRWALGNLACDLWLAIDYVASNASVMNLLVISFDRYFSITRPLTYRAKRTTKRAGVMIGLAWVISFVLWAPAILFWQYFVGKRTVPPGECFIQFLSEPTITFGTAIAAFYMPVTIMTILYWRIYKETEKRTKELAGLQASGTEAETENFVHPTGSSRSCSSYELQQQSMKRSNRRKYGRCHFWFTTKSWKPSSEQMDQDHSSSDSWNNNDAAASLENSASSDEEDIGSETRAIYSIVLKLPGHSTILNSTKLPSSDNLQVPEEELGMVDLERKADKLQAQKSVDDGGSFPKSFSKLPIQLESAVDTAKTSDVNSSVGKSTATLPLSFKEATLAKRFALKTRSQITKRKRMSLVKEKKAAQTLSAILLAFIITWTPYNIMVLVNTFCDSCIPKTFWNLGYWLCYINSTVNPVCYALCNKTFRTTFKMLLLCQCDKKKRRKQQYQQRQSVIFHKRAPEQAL
compound,measurement,setting,value
"CCCC(F)(F)CCOc1nsnc1C1=CCCN(C)C1 [Example 10, 3-((3,3-Difluorohexyl)oxy)-4-(1-methyl-1,2,5,6-tetrahydropyridin-3-yl)-1,2,5-thiadiazole]",EC50,"human M5 mAChR; agonist, FLIPR Ca2+ release, CHOK1 human M5 cells",26.5 nM
same,Emax,human M5 mAChR,87%
same,microsomal CLint at 100 nM,"[1]; apparent intrinsic clearance, no unit in table (μL/min/pmol, μL/min/mg or μL/min/Mcell)",701 µL/min/mg
same,Parent at 60 min (%),"[1]; 100 nM, 37° C., tartrate salt",1%
same,half-life at 100 nM,"[1]; 100 nM, 37° C., tartrate salt",10 min
same,EC50,"human M1 mAChR; agonist, FLIPR Ca2+ release, U2OS human M1 cells",4.2 nM
same,Emax,"human M1 mAChR; top of curve, % activity vs MAX control ligand, FLIPR Ca2+",90%
same,EC50,human M3 mAChR,> 10000 nM
same,Emax,human M3 mAChR,9%
"FC(F)(F)CCCCCOc1nsnc1C1=CCCN(C(F)(F)F)C1 [Example 2, 3-((6,6,6-Trifluorohexyl)oxy)-4-(1-(trifluoromethyl)-1,2,5,6-tetrahydropyridin-3-yl)-1,2,5-thiadiazole]",storage stability of tartrate salt,"[2]; six months of storage at 0° C., LC-MS, 1H NMR, 19F NMR",none of the title compound remained in the sample
"CCCCCCOc1nsnc1C1=CCCN(C(F)(F)F)C1 [Example 3, 3-(Hexyloxy)-4-(1-(trifluoromethyl)-1,2,5,6-tetrahydropyridin-3-yl)-1,2,5-thiadiazole]",stability of tartrate salt preparation by LCMS,[2]; after 2 days,turned messy
"[2H]C([2H])([2H])N1CCC=C(c2nsnc2OC([2H])([2H])C([2H])([2H])C([2H])([2H])C([2H])([2H])C([2H])([2H])C([2H])([2H])[2H])C1 [Xanomeline-d16, 3-((hexyl-1,1,2,2,3,3,4,4,5,5,6,6,6-d13)oxy)-4-(1-(methyl-d3)-1,2,5,6-tetrahydropyridin-3-yl)-1,2,5-thiadiazole]","agonist profile at hM3, hM5, hM2",[3],modestly potent partial agonists at mAChRs hM3>hM5>hM2
same,"agonist profile at hM4, hM1",[3],efficacious partial agonist at hM4>hM1
"CCCCCCOc1nsnc1C1=CCCN(C)C1 [Xanomeline, 3-(hexyloxy)-4-(1-methyl-1,2,5,6-tetrahydropyridin-3-yl)-1,2,5-thiadiazole, reference compound]",M2 Top (%),human M2 mAChR,1%
same,Emax,human M5 mAChR,92%
same,EC50,human M3 mAChR,> 10000 nM
same,Emax,human M3 mAChR,17%
same,plasma levels compared between treatments,[4],about mid-way between the levels of xanomeline-d16 and xanomeline-d13
same,M4 Top (%),human M4 mAChR,100%
"[2H]C([2H])([2H])C([2H])([2H])C([2H])([2H])C([2H])([2H])C([2H])([2H])C([2H])([2H])Oc1nsnc1C1=CCCN(C)C1 [Xanomeline-d13, 3-((Hexyl-1,1,2,2,3,3,4,4,5,5,6,6,6-d13)oxy)-4-(1-methyl-1,2,5,6-tetrahydropyridin-3-yl)-1,2,5-thiadiazole]","agonist profile at hM3, hM5, hM2",[3],modestly potent partial agonists at mAChRs hM3>hM5>hM2
same,"agonist profile at hM4, hM1",[3],efficacious partial agonist at hM4>hM1
